Results from paper PMC8509831 (International Journal of Molecular Sciences, 2021).
Like-named read-outs stand apart in the source and are kept apart here. Marks after values point to notes of the source that are not given here. Each block holds one compound with its values, some of them ahead of it.

Columns and labels:
LOX-5 = assay: 5-LOX enzyme inhibitory assay (polarographic, Clark oxygen electrode); format: biochemical, potato; conditions: mean ± SD, n = 3
Experimental: The IC50 was determined for the studied compounds and reference standards. […] Furthermore, 5-LOX enzyme was extracted from potato tubers as described previously. […] The enzyme activity was expressed as moles of oxygen consumed per min/mg protein, as 5-LOX adds oxygen to the substrate, implying that the rate of decrease of oxygen in the reaction mixture was intrinsic to the measurement of enzyme activity. The results were expressed as IC50 (μg/mL) for the sample and reference compounds in triplicate.

COX-1 = molecular target: T1, COX-1 (Ovis aries, UniProt P05979); assay: COX-1 enzyme inhibitory assay (COX inhibitor screening kit); format: biochemical
T1 construct: purchased Cayman Chemicals 560131
T1 sequence (P05979 25-600): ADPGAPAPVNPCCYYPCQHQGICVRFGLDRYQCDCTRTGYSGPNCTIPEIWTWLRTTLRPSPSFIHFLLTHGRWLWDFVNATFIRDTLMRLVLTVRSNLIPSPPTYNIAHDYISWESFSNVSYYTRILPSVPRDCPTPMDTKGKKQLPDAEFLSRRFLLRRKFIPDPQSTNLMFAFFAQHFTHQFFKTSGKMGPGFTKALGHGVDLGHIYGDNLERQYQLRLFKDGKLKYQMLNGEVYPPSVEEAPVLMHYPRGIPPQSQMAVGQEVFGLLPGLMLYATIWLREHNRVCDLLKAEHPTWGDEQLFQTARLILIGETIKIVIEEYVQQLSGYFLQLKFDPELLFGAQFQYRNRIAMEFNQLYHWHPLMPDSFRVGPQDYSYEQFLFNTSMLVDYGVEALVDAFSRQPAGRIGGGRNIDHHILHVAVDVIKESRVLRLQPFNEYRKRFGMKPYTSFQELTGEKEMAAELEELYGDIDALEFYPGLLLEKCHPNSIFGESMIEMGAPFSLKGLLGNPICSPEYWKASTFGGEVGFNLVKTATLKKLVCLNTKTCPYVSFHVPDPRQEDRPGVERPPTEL

COX-2 = molecular target: T2, COX-2 (Homo sapiens, UniProt P35354); assay: COX-2 enzyme inhibitory assay (COX inhibitor screening kit); format: biochemical; conditions: mean ± SD, n = 3; read-out: Enzyme Inhibitory Effect IC50 COX-2 (converted)
T2 construct: purchased Cayman Chemicals 560131
T2 sequence (P35354 18-604): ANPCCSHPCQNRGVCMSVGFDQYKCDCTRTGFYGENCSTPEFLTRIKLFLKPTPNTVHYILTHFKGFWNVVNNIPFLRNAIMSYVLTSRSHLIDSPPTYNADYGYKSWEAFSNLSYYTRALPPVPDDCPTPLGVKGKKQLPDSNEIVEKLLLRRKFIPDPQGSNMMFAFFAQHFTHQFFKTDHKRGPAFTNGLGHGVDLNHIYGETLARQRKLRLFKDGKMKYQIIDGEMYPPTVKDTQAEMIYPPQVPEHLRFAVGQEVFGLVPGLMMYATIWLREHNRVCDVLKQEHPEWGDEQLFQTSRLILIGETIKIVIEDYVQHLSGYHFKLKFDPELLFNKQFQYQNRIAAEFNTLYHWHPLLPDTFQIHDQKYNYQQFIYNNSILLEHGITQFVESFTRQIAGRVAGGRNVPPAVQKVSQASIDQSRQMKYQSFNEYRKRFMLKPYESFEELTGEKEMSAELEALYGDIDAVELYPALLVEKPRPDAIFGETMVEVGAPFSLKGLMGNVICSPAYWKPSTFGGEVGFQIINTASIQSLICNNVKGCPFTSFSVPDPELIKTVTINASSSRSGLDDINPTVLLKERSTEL

HeLa cells [1] = assay: Annexin V-FITC/PI apoptosis assay by flow cytometry; format: cell-based, human
Experimental: Annexin V-FITC/propidium iodide (PI) assay was performed as per the manufacturer's instructions (Sino Biological, Beijing, China). Briefly, HeLa cells (2 × 10^5 cells/well) in 6-well culture plates were treated with […] (30 μg/mL) or with DMSO as a vehicle control for 24 and 48 h. Subsequently, floating as well as adherent cells were collected and washed with PBS. The cells were centrifuged at 400× g for 5 min at RT and resuspended in binding buffer containing Annexin V-FITC, along with PI. In each experiment, 1 × 10^4 cells were analyzed for annexin V-FITC/PI staining after incubation for 20 min at RT in the dark.

MuD = assay: Western blot, MuD expression; format: cell-based, human; conditions: HeLa, 30 μg/mL, 12, 24, and 48 h
Experimental: (§1) HeLa cells (1.5 × 10^6 cells/well) were seeded in six-well plates and cultured in MEM supplemented with 10% FBS for 24 h. Subsequently, the cells were treated with the indicated amounts of Q3G or DMSO as a vehicle control for 12–48 h. Following this, the cells were collected, and total lysates from treated cells were prepared in RIPA buffer for 15 min. Protein concentration was determined using a Bio-Rad protein assay kit with BSA [63]. […] Membranes were treated with PBS containing 0.05% Tween 20 and 5% nonfat dry milk to block nonspecific binding at 15–25 °C and were incubated overnight at 4 °C with the following specific primary antibodies: caspase-9/-3, Bax, Bcl-2, Bid, CDK2, and MuD. β-Actin was used as an invariant control for equal loading of total proteins. After incubation with the primary antibody, the membranes were incubated with the appropriate secondary antibodies conjugated to horseradish peroxidase. Finally, immunoreactive bands were visualized using an enhanced chemiluminescence substrate (Bio-Rad).

HeLa cells [2] = assay: Intracellular ROS production (DCFDA fluorescence); format: cell-based, human; conditions: 30 μg/mL
Experimental: Cellular ROS production was analyzed as previously described with minor modifications to the original methodology. Briefly, cells were seeded at a density of 1.5 × 10^4/well in a black, clear bottom 96-well plate. The following day, cells were treated with […] (30 μg/mL) or DMSO as a vehicle control for 12-48 h. Forty-five minutes prior to completion of the treatment, 100 μL of 2× H2DCFDA dilution was overlayed in each well and incubated in 5% CO2 with DCFDA as well as the compounds for 30 min at 37 °C. The fluorescence in each well was assessed on a microplate reader at the end point in the presence of compounds and DCFDA with Ex/Em = 485/535 nm wavelengths.

HeLa cells [3] = assay: WST cell viability assay; format: cell-based, human; conditions: for Cell Viability (%): HeLa, 40 μg/mL, listed as Q3G
Experimental: (§2) The viability of HeLa cells treated with […] (0-100 μg/mL, concentrations) was examined for 24-72 h using a colorimetric WST assay. Briefly, HeLa cells were cultured in a clear-bottom 96-well plate at a density of 9 × 10^3 cells/well in MEM supplemented with 10% FBS and 1% penicillin-streptomycin in a 5% CO2 incubator and incubated for 24 h at 37 °C. The […] stock solution was prepared in DMSO and stored at -20 °C. Subsequently, the cells were exposed to various concentrations of […] (0-100 μg/mL) over a period of 24-72 h. The cell proliferation reagent WST-1 solution (10 μL/well) was added to the plates, followed by incubation in 5% CO2 for 2 h at 37 °C in the dark. Thereafter, the plates were shaken thoroughly for 1 min on a shaker at RT, and the absorbance of the reporter substrate was measured at 450 nm and 600 nm (reference wavelength 650 nm) using a microplate reader coupled with the Gen5 software (BioTek, Winooski, VT, USA).

WST cell viability assay = format: cell-based, human; conditions: human, HeLa cells, HeLa
Experimental: as §2

CDK2 = assay: Western blot, CDK2 expression; format: cell-based, human; conditions: HeLa, 30 μg/mL, 12-48 h
Experimental: as §1

Bax = assay: Western blot, Bax expression; format: cell-based, human; conditions: HeLa, 30 μg/mL, 12, 24, and 48 h
Experimental: as §1

caspase-9 = assay: Western blot, caspase-9 expression; format: cell-based, human; conditions: HeLa, 30 μg/mL, 12, 24, and 48 h
Experimental: as §1

Bcl-2 = assay: Western blot, Bcl-2 expression; format: cell-based, human; conditions: HeLa, 30 μg/mL, 12, 24, and 48 h
Experimental: as §1

HeLa cells [4] = assay: Cell cycle analysis by PI flow cytometry; format: cell-based, human; conditions: 30 μg/mL, listed as Q3G
Experimental: Cell cycle analysis was performed in HeLa cells as previously described. Cells were seeded into six-well plates at a density of 2 × 10^5 cells per well and treated with […] (30 μg/mL) for 12-48 h. Thereafter, the cells were harvested, washed with PBS, and fixed at 4 °C for 1 h in a 70% PBS-ethanol solution. Cells were subsequently washed twice with PBS, and 50 μL of a 100 μg/mL stock of DNase-free RNase was added to ensure that only DNA, not RNA, was stained. Cell pellets were stained with a fluorescent probe PI (50 μg/mL) and incubated at RT for 30 min, and then analyzed using a NovoCyte 1000 benchtop flow cytometer (ACEA Biosciences, San Diego, CA, USA).

[5] = mean ± SD, n = 3, read-out: Enzyme Inhibitory Effect IC50 COX-1 (converted)

Enzyme Inhibitory Effect IC50 LOX-5 (LOX-5): 12.26 ± 0.91 ^g μg/mL | IC50 (COX-1; [5]): 113 µM
SMILES: O=C(O)/C=C/c1ccc(O)c(O)c1 [Caffeic acid]

IC50 (COX-2): 121 µM | Enzyme Inhibitory Effect IC50 LOX-5 (LOX-5): 16.86 ± 1.22 ^h μg/mL | IC50 (COX-1; [5]): 91.7 µM
SMILES: O=C(CCc1ccc(O)cc1)c1c(O)cc(O)cc1O [Phloretin]

IC50 (COX-2): 93.2 µM | Enzyme Inhibitory Effect IC50 LOX-5 (LOX-5): 7.96 ± 0.76 ^d μg/mL | IC50 (COX-1; [5]): 55.4 µM
SMILES: O=C(O)/C=C/c1ccc(O)cc1 [Coumaric acid]

Enzyme Inhibitory Effect IC50 LOX-5 (LOX-5): 10.09 ± 1.03 ^f μg/mL | IC50 (COX-1): 63 µM
SMILES: Oc1cc(O)c2c(c1)O[C@H](c1ccc(O)c(O)c1)[C@H](O)C2 [Epicatechin]

IC50 (COX-2): 75.3 µM | Enzyme Inhibitory Effect IC50 LOX-5 (LOX-5): 9.98 ± 0.94 ^e μg/mL | IC50 (COX-1; [5]): 39.7 µM
SMILES: O=C(/C=C/c1ccc(O)c(O)c1)O[C@@H]1C[C@](O)(C(=O)O)C[C@@H](O)[C@H]1O [Chlorogenic acid]

SMILES: O=c1c(O[C@@H]2O[C@H](CO)[C@@H](O)[C@H](O)[C@H]2O)c(-c2ccc(O)c(O)c2)oc2cc(O)cc(O)c12 [Quercetin-3-glucoside, quercetin 3-β-D-glucoside]
cells in early apoptosis (HeLa cells [1]; 30 μg/mL, 48 h): Approximately 20% | cells in the late apoptosis phase (HeLa cells [1]; 30 μg/mL, 48 h): ~35% | difference in apoptosis (early and late phase) compared with the control cells (HeLa cells [1]; 24 h of treatment): No significant difference | increase in the number of apoptotic cells (Annexin V-positive cells) (HeLa cells [1]; after 48 h compared to after 24 h of treatment): 16–22% | MuD expression (MuD): markedly reduced | ROS level higher than the control group (HeLa cells [2]; 12 h): approximately 6 fold | ROS level higher than the control group (HeLa cells [2]; 24 h): ~12 fold | Enzyme Inhibitory Effect IC50 LOX-5 (LOX-5): 2.31 ± 0.32 ^b μg/mL | IC50 (COX-1): 7.8 µM | concentrations with significant growth inhibition (HeLa cells [3]; HeLa cells, 48 h): higher than 10 µg/mL | Cell Viability (%) (HeLa cells [3]; 24 h): 83.30 ± 4.05% | Cell Viability (%) (HeLa cells [3]; 48 h): 36.27 ± 1.38% | Cell Viability (%) (HeLa cells [3]; 72 h): 17.97 ± 1.42% | viability at 48 h, 0.1 μg/mL (WST cell viability assay; 0.1 μg/mL, 48 h): 114.98 ± 0.05% | viability at 48 h, 1 μg/mL (WST cell viability assay; 1 μg/mL, 48 h): 103.3 ± 0.12% | viability at 48 h, 10 μg/mL (WST cell viability assay; 10 μg/mL, 48 h): 116.1 ± 0.01% | viability at 24 h, 40 μg/mL (WST cell viability assay; 40 μg/mL, 24 h): 83% | viability at 48 h, 40 μg/mL (WST cell viability assay; 40 μg/mL, 48 h): 36% | viability at 72 h, 40 μg/mL (WST cell viability assay; 40 μg/mL, 72 h): 18% | viability at 48 h, 50 μg/mL (WST cell viability assay; 50 μg/mL, 48 h): 29.6% | viability at 48 h, 100 μg/mL (WST cell viability assay; 100 μg/mL, 48 h): 41.81 ± 0.01% | protein expression of CDK2 (CDK2): decreasing | level of Bax (Bax): increase | expression of the initiator caspase, caspase-9 (caspase-9): reduced | level of anti-apoptotic protein Bcl-2 (Bcl-2): reduced | cells in S phase (HeLa cells [4]; 24 h): ~56% | cells in S phase (HeLa cells [4]; 48 h): ~63%

IC50 (COX-2): 37.4 µM | IC50 (COX-1; [5]): 20.2 µM
SMILES: O=c1c(O)c(-c2ccc(O)c(O)c2)oc2cc(O)cc(O)c12 [Quercetin]

IC50 (COX-2): 83 µM | Enzyme Inhibitory Effect IC50 LOX-5 (LOX-5): 18.98 ± 0.85 ^i μg/mL | IC50 (COX-1; [5]): 65.6 µM
SMILES: O=C(CCc1ccc(O)cc1)c1c(O)cc(O)cc1O[C@@H]1O[C@H](CO)[C@@H](O)[C@H](O)[C@H]1O [Phloridzin]
